Holding throughout (format): binding
The target in assay [1] is T1, HeLa cell extract proteins (Homo sapiens, UniProt Q13618).
T1 construct: endogenous in cells; host or cells: HeLa cell extract

In assay [2] the target is T2, HeLa cell extract proteins (Homo sapiens, UniProt Q969S8).
T2 construct: endogenous in cells; host or cells: HeLa cell extract
T2 sequence (Q969S8 1-669): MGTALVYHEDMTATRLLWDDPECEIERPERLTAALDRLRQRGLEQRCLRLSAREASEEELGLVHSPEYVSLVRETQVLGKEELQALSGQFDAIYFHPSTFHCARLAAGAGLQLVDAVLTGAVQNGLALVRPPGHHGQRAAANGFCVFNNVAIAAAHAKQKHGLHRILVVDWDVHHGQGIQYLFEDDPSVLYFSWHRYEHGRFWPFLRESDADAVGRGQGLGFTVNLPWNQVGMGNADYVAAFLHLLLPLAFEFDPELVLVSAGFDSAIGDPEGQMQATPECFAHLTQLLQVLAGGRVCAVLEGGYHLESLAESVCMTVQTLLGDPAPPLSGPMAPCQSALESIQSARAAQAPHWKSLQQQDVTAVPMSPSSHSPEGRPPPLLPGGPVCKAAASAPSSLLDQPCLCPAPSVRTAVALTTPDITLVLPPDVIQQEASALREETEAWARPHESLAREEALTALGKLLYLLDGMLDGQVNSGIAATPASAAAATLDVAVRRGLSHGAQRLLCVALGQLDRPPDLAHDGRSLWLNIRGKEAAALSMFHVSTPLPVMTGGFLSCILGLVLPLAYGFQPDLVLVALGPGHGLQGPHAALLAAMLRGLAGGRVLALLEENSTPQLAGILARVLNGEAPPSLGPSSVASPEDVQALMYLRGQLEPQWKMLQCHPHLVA

In assay [3] the target is T3, HeLa cell extract proteins (Homo sapiens, UniProt Q9NX63).
T3 construct: endogenous in cells; host or cells: HeLa cell extract
T3 sequence (Q9NX63 1-227): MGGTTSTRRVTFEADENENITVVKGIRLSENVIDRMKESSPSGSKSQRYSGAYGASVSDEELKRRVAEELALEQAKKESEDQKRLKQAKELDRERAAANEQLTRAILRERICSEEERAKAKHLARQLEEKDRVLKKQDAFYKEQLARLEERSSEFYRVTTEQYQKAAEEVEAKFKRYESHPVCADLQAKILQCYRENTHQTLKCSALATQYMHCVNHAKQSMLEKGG

Assay [4] deals with T4, HeLa cell extract proteins (Homo sapiens, UniProt Q9H479).
T4 construct: endogenous in cells; host or cells: HeLa cell extract
T4 sequence (Q9H479 1-309): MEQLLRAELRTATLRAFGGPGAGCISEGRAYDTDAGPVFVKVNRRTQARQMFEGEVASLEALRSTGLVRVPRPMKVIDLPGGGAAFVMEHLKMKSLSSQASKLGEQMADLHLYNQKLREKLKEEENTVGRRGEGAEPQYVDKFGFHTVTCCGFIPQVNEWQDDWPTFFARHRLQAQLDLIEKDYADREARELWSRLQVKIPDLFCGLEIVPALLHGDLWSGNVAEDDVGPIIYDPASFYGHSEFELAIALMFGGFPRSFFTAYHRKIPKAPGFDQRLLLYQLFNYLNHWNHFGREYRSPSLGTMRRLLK

Assay [5] addresses T5, HeLa cell extract proteins (Homo sapiens, UniProt Q00839).
T5 construct: endogenous in cells; host or cells: HeLa cell extract

The target in assay [6] is T6, HeLa cell extract proteins (Homo sapiens, UniProt P33993).
T6 construct: endogenous in cells; host or cells: HeLa cell extract

Assay [7] addresses T7, HeLa cell extract proteins (Homo sapiens, UniProt Q9H903).
T7 construct: endogenous in cells; host or cells: HeLa cell extract
T7 sequence (Q9H903 1-347): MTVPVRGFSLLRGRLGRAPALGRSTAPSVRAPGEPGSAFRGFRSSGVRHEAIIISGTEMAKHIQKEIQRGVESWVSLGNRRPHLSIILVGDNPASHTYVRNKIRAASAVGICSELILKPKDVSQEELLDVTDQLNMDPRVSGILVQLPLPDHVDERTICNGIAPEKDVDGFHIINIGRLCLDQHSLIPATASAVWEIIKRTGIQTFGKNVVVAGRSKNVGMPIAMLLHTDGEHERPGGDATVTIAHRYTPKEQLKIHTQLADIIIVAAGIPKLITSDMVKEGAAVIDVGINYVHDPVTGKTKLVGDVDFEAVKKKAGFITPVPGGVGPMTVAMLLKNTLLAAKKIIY

Assay [8] has as its target T8, HeLa cell extract proteins (Homo sapiens, UniProt P50991).
T8 construct: endogenous in cells; host or cells: HeLa cell extract
T8 sequence (P50991 1-539): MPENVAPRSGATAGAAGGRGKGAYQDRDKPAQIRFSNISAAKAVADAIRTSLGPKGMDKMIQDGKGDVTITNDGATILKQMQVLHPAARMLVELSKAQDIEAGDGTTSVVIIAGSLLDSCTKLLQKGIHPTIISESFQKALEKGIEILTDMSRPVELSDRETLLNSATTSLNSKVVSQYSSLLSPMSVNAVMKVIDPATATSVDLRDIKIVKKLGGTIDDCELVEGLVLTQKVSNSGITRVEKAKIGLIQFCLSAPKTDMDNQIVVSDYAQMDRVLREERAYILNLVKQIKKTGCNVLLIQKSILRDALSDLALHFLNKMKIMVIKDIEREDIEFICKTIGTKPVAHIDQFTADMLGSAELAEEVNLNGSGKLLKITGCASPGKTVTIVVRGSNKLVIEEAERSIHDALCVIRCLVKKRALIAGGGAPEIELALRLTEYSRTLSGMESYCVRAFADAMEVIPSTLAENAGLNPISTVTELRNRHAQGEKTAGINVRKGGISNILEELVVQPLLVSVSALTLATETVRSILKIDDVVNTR

Assay [9] deals with HeLa cell extract proteins.
Where [10] appears, read: HeLa, captured protein LOC442497.
Setting [11] is: HeLa, protein ABCB7 (ISOFORM 2 OF ATP-BINDING CASSETTE SUB-FAMILY B MEMBER 7, MIT[…]).
Setting [12] is: HeLa, protein ASAH1 (N-ACYLSPHINGOSINE AMIDOHYDROLASE (ACID CERAMIDASE) 1 ISOFORM B).
[13] abbreviates: HeLa, protein MYL6 (ISOFORM SMOOTH MUSCLE OF MYOSIN LIGHT POLYPEPTIDE 6).
[14] abbreviates: HeLa, protein PSMA1 (ISOFORM LONG OF […] ALPHA TYPE 1).

Each structure is given as a SMILES string. Values joined by “and” are separate entries in the source; they are usually repeats but may differ in a detail not shown here. Equal values may be shown once. Read-outs that look alike come from different tables or passages of the source.

Results on 3 compounds are retold here after article PMC6199744, “Development of Chemical Proteomics for the Folateome and Analysis of the Kinetoplastid Folateome” (ACS Infectious Diseases, 2018).

T5 sequence (Q00839 whole entry): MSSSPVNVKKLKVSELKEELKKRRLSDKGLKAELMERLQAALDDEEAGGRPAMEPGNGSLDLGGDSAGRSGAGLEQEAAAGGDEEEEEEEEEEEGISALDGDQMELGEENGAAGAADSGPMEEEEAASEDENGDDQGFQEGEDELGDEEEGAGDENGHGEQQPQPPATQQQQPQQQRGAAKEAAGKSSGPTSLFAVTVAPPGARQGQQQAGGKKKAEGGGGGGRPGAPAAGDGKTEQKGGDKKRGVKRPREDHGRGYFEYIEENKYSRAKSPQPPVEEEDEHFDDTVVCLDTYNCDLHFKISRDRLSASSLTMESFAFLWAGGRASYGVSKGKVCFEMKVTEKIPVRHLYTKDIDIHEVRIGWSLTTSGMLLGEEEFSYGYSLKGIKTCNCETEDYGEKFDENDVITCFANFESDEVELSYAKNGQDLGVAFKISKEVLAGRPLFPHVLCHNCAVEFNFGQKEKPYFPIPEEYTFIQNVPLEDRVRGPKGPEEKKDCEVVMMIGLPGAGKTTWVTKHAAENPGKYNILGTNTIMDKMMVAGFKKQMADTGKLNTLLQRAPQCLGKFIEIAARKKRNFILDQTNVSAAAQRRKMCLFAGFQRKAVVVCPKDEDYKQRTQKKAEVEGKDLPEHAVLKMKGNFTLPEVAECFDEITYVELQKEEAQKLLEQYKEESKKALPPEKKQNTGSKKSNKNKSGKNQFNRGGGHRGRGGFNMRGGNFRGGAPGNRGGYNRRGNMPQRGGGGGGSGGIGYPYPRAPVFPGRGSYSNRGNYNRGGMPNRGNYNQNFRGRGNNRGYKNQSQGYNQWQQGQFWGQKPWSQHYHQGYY
T1 sequence (Q13618 whole entry): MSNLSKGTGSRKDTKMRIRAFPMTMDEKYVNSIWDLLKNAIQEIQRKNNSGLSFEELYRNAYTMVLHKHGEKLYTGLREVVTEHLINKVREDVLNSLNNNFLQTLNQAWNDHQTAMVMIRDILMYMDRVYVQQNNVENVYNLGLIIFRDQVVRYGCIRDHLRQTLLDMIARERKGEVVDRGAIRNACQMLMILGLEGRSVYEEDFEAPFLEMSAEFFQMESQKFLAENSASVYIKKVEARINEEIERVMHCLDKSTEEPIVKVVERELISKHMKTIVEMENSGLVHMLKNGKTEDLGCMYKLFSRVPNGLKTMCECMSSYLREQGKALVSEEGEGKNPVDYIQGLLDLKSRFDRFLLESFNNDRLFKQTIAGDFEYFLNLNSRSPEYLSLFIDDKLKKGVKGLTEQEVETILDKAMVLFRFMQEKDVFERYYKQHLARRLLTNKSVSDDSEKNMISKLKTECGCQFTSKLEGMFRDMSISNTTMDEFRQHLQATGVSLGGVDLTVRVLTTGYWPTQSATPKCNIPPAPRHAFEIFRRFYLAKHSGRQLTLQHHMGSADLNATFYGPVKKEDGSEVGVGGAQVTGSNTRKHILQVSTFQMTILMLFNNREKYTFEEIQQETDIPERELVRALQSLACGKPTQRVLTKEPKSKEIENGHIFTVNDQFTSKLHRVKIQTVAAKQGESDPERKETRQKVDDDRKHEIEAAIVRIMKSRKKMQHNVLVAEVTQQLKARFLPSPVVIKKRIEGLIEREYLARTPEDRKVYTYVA
T6 sequence (P33993 whole entry): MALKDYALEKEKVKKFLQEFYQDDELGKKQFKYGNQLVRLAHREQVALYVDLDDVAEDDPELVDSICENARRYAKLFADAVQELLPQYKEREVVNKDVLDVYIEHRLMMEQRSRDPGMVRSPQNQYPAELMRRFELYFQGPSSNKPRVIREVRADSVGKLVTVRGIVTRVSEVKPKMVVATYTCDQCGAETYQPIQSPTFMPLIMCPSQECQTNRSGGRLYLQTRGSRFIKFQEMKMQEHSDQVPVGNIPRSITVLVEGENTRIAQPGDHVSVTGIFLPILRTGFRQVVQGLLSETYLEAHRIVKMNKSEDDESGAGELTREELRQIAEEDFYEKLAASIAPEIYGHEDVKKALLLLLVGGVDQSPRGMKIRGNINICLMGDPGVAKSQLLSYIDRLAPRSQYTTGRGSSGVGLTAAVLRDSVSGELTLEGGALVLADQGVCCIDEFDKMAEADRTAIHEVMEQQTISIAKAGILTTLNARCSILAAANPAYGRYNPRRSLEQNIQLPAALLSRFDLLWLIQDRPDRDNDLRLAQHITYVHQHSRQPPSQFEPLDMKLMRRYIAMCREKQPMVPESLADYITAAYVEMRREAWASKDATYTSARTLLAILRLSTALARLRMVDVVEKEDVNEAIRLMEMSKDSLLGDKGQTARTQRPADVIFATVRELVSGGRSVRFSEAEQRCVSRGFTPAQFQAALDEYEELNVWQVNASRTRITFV

Consider `NCCCNc1ccc(C(=O)NC(CCC(=O)O)C(=O)O)cc1` (stereo not shown) [compound 7], for which the “fold changes relative to vehicle control” value is recorded as 0.91 in assay [1] (HeLa, protein CUL3); 0.95 in assay [2] (HeLa, protein HDAC10); 0.99 in [3] (HeLa, protein CHCHD3); 0.99 in [4] (HeLa, protein FN3K (FRUCTOSAMINE-3-KINASE)); 1.04 in [5] (protein HNRNPU, HeLa); 1.14 in assay [6] (protein MCM7, HeLa). Moreover, the “fold changes relative to vehicle control” value in assay [7] (HeLa, protein MTHFD2L) was 1; in assay [8] (protein CCT4, HeLa), 0.94; in assay [9] (HeLa, captured protein EIF1AP1), 0.98; in [9] (setting [10]), 1.05; in assay [9] (setting [11]) it was 1.23; in assay [9] (setting [12]), 1.18. Also, the “fold changes relative to vehicle control” value came out at 1 in assay [9] (HeLa, protein GTPBP3 (ISOFORM 2 OF TRNA MODIFICATION GTPASE GTPBP3, MITOCHONDRIAL PRECURSOR)); 0.99 in [9] (HeLa, protein LOC654188); 1.14 in assay [9] (setting [13]); 0.91 in assay [9] (HeLa, protein NME1-NME2); 1.02 in assay [9] (setting [14]); 0.98 in assay [9] (HeLa, protein PSME1 (PROTEASOME ACTIVATOR SUBUNIT 1 ISOFORM 2)). Also, the “fold changes relative to vehicle control” value is given as 0.93 in [9] (HeLa, protein RPLP0-LIKE); 0.9 in [9] (protein HIST2H2BA, HeLa); 1.02 in assay [9] (protein LOC646960, HeLa).

For `Nc1nc2[nH]cc(CCc3ccc(C(=O)N[C@@H](CCC(=O)O)C(=O)O)cc3)c2c(=O)[nH]1` [PTX, pemetrexed], the “fold changes relative to vehicle control” value amounted to 0.92 in assay [1]; 0.85 in assay [2]; 0.98 in [3]; 0.88 in assay [4]; 0.92 in [5]; 0.96 in assay [6]. Besides, the “fold changes relative to vehicle control” value in assay [7] was determined as 0.9; in assay [8], 1.01; in assay [9] (HeLa, captured protein EIF1AP1), 0.95; in [9] (setting [10]), 1.08; in assay [9] (setting [11]) it was 1.19; in assay [9] (setting [12]), 1.19. Besides, the “fold changes relative to vehicle control” value in assay [9] (HeLa, protein GTPBP3 (ISOFORM 2 OF TRNA MO[…] GTPBP3, MIT[…])) came to 0.49; in assay [9] (HeLa, protein LOC654188) it was 1.12; in assay [9] (setting [13]), 1.4; in assay [9] (HeLa, protein NME1-NME2) it was 1.08; in [9] (setting [14]), 1.09; in [9] (HeLa, protein PSME1 ([…] SUBUNIT 1 ISOFORM 2)), 1. Further, the “fold changes relative to vehicle control” value in assay [9] (HeLa, protein RPLP0-LIKE) was found to be 0.92; in [9] (protein HIST2H2BA, HeLa), 0.94; in assay [9] (protein LOC646960, HeLa), 0.95.

As to `Nc1nc2cccc(-c3ccccc3)c2n1Cc1ccc(Cl)c(Cl)c1` [compound 3], the “fold changes relative to vehicle control” value in [1] (captured protein CUL3, HeLa) came to 0.93; in assay [2] (captured protein HDAC10, HeLa), 0.9; in assay [3] (captured protein CHCHD3, HeLa), 1.02; in assay [4] (protein FN3K, HeLa), 1.09; in assay [5] (HeLa, protein HNRNPU), 0.96; in assay [6] (protein MCM7, HeLa), 1.24. Besides, the “fold changes relative to vehicle control” value in assay [7] (HeLa, protein MTHFD2L) is 1.07; in assay [8] (protein CCT4, HeLa), 1; in assay [9] it was 0.88 fold and 1 fold; in assay [9] (HeLa, protein A8MV93_HUMAN (SIMILAR TO CYTOCHROME C.)), 1.12 fold; in [9] (HeLa, protein CTNNA1 (ISOFORM 2 OF CATENIN ALPHA-1.)), 2.07 fold; in [9] (HeLa, protein LOC646960), 1.08. For the same compound, the “fold changes relative to vehicle control” value is reported as 0.91 fold in [9] (HeLa, protein LOC654188 (SIMILAR TO PEPT[…] A-LIKE.)); 0.97 in [9] (protein EIF1AP1, HeLa); 1.03 in [9] (protein LOC442497, HeLa); 1.04 in assay [9] (protein RPLP0-LIKE, HeLa).
